The source of these data is article PMC10324113, “Gut microbiome modulates tacrolimus pharmacokinetics through the transcriptional regulation of ABCB1” (Microbiome, 2023).

Data set [1] addresses T1, ABCB1 (Homo sapiens, UniProt P08183).
T1 construct: expressed in transfected cells
As to the kind of experiment: ABCB1 functionality assay: rhodamine 123 intracellular accumulation in HEK293 recombinant cells. To be noted: 5 μM Rh123, 90 min, PBS condition. In kind it is cell-based.
Experimental: First, we tested the impact of FW on the intrinsic ABCB1 efflux functionality. The intracellular accumulation of rhodamine 123 (Rh123), a fluorescent-specific substrate of ABCB1 [39, 40], was performed in HEK293 recombinant cells. Rh123 accumulation was compared between control cells (Control plasmid) expressing low basal levels of ABCB1 and stably transfected cells overexpressing ABCB1 (ABCB1 plasmid), pre-exposed or not to FW for 15 min (Fig. 8A).
Briefly, HEK293 cells were transfected with a plasmid encoding for ABCB1 (ABCB1 plasmid) or an empty vector (control plasmid). HEK293 cells feature low endogenous levels of expression of ABCB1, ensuring that all ABCB1 expression originates from the transfection process. […] Finally, the cells were washed with buffer and resuspended before being analysed using a BD FACSVerse flow cytometer (for characterization) or BD FACSAria III (for cell sorting) and the BD FACSuite software (BD Bioscience, USA). […]
One day before the experiment, 9*10^4 cells (HEK293) were plated in poly-L-lysine-coated black 96-well plates in complete medium. […] Finally, the intracellular fluorescence of Rh123 was analysed by a fluorimeter SpectraMax i3x (Molecular Devices, USA); excitation wavelength was set at 485 nm and emission at 530 nm.

A further data set deals with total bacteria. As to the kind of experiment: Absolute quantification of total faecal bacteria by qPCR. The format is in vivo. Conditions: CTL and TAC mice, faeces, up to 5 days. As for the experimental part:
(§1) Genomic DNA was extracted from faeces using a QIAamp DNA Stool Mini Kit (Qiagen, Germany), including a bead-beating step. Absolute quantification of the total bacteria was performed by quantitative polymerase chain reaction (qPCR) using the primers Bacteria Universal P338f ([…]) and P518r ([…]). 16S rRNA gene sequencing and ensuing bioinformatics and biostatistics analyses (including amplicon sequence variants (ASV) identification) were performed as previously described. Full details are provided in the Supporting Information.
To assess the impact of ATB on the bacterial load, genomic DNA was extracted from faeces using the QIAamp DNA Stool Mini Kit (Qiagen, Germany) according to manufacturer’s instructions, with the addition of a bead-beating step. […] DNA concentration was determined using a NanoDrop 2000 (Thermo Fisher Scientific, USA).
PCR was performed with a QuantStudio3 (Applied Biosystems, USA) using SYBR Green (GoTaq® qPCR mix, Promega, USA) for detection. […] Threshold was manually adjusted to reach the linear range of the log-fluorescent curves and CT values were determined using the QuantStudio software v1.4.3 (Applied Biosystems, USA). Absolute quantification was achieved through the inclusion of a standard curve (performed in duplicate) on each plate generated by diluting DNA from pure culture of L. acidophilus NCFM (five-fold serial dilution). […]

A short description of data set [2]: Tacrolimus whole blood pharmacokinetics after oral gavage in mice (HPLC-MS/MS, population PK model). Conditions: for AUC: TAC AUC (population PK-derived). As for the experimental part:
TAC was suspended in a mix of water and propylene glycol (90:10), 3 to 5 days before the first administration and kept at 4 °C. […] TAC was first dissolved in propylene glycol, then the water was added. The suspension was homogenized using an ultrasonic homogenizer 3 times for 15 s (QSonica Q700 sonicator, QSonica LLC., USA). TAC concentration was always checked before the first and after the last gavage to control for the dose. TAC or the vehicle was administered once a day (always at the same period) by oral gavage. A dose of 3 mg of TAC/kg of body weight was administered for 5 days, except in the dose determination study where different escalating doses (from 0.1 to 10 mg/kg of body weight) were tested (4 days of treatment).
It was administered via drinking water and renewed every other day.
Zosuquidar (ZSQ) was suspended in aqueous 0.5% methylcellulose (based on Matsuda et al.). A single dose of 30 mg/kg of body weight was administered 15 min before last TAC administration by oral gavage (based on Kono et al.).
Fresh faeces were collected and quickly frozen on dry ice before storage at − 80 °C until further analysis or use. Whole blood samples were collected from the tail of awake freely moving mice, at various time points (ranging from 1 to 24 h = T0, after last gavage). The blood sampling strategy used to generate the concentration–time curve of TAC blood levels in mice is detailed in the Supporting information. Before necropsy, mice were fasted for minimum 4 h and anesthetized with ketamine-xylazine or isoflurane. Hepatic and intestinal tissues were quickly collected and frozen in liquid nitrogen before storage at − 80 °C until further analysis.
Blood quantification of TAC was performed on a high-performance liquid chromatography-tandem mass spectrometry (HPLC–MS/MS) method, as already described elsewhere and further optimized for the small amounts of blood available in mouse PK studies. Briefly, the Agilent HPLC 1290 Infinity system is coupled to the 6460 Triple Quadrupole instrument. Fifty microlitres of whole blood was pre-treated and vortexed with 50 μl zinc sulfate 0.1 M, and 125 μl internal standard (ascomycin, 5 μg/L) in methanol. Samples were sonicated for 5 min, before 5 min of centrifugation at 13,500 rpm. Forty microlitres of the supernatant was injected into the system. The precolumn used was the 10 × 4 mm 3 μm Mercury Phenomenex, and the analytical column was the 4.6 × 50 mm 1.8 μm Agilent Zorbax Eclipse XDB C18, maintained at 60 °C. The mobile phase of pump 1 contained a mixture of H2O/methanol (40/60%), and pump 2 2 mM NH4^+ acetate, and aqueous 0.5% formic acid/ methanol (5/95%). […] The method is fully validated in terms of analytical performance (limit of quantification: 0.5 ng/ml; imprecision < 5%) and ion suppression effects. The laboratory participates to the TAC International Proficiency Testing Scheme (ASI, London, UK).
All data generated in this project (n = 351 PK data) were used to develop a population PK model of TAC in mice at steady-state with an average number of observations per subject of 3.5. Population PK modeling of TAC blood concentrations was performed with MonolixSuite-2020R1 software (Lixoft, France) using the stochastic approximation expectation–maximization (SAEM) algorithm. Between-subject variability (eta) was described using an exponential model and covariance between random effects was investigated. Three error models (i.e. proportional, additive and combined) to describe the residual error were tested. The influence of mouse treatment on PK parameters was also investigated through its association with the eta of PK parameters. Additional information on the building of the population PK model (e.g. the precise description of number of measurements per time points) is provided in the Supporting Information.

Data set [3] is described as follows: Stability of the TAC suspension for gavage. The format is physicochemical. Conditions: suspension in water and propylene glycol (90:10), kept at 4 °C.
For another data set, the system named is gut microbiota. The data set can be described thus: Faecal microbiota composition by 16S rRNA gene sequencing in TAC-treated mice. The format is in vivo. As for the experimental part: as §1
To evaluate the potential impact of TAC oral administration on the gut microbiota composition, we compared the faecal bacterial composition of mice treated with TAC (TAC) or with the vehicle (CTL). Faeces were collected at baseline (day 0) and after 2 and 5 days of treatment.
To assess the impact of ATB on the bacterial load, genomic DNA was extracted from faeces using the QIAamp DNA Stool Mini Kit (Qiagen, Germany) according to manufacturer’s instructions, with the addition of a bead-beating step. To assess the impact of TAC on gut microbiota composition, genomic DNA was extracted from faeces following the protocol Q described by Costea et al. This protocol uses a QIAamp DNA Stool Mini Kit (Qiagen, Germany), including a bead-beating step. Treatment with RNAse A was performed (10 mg/ml, Thermo Fisher Scientific, USA). DNA concentration was determined using a NanoDrop 2000 (Thermo Fisher Scientific, USA).
Amplicon sequencing of the microbiome was done at the University of Minnesota Genomics Center. Briefly, the V5-V6 region of the 16S rRNA gene was PCR-enriched using the primer pair V5F_Nextera ([…]) and V6R_Nextera ([…]) in a 25 μl PCR reaction containing 5 μl of template DNA, […], 500 nM of final concentration of primers and 0.025 U/μl of HostStar Taq+ polymerase (Qiagen Germany). PCR-enrichment reactions were conducted as follow, an initial denaturation step at 95°C for 5 min followed by 25 cycles of denaturation (20 s at 98°C), annealing (15 s at 55°C), and elongation (1 min at 72°C), and a final elongation step (5 min at 72°C). Next, the PCR-enriched samples were diluted 1:100 in water for input into library tailing PCR. The PCR reaction was analogous to the one conducted for enrichment except with a KAPA HiFi Hot Start Polymerase concentration of 0.25 U/μl, while the cycling conditions used were as follows: initial denaturation at 95°C for 5 min followed by 10 cycles of denaturation (20 s at 98°C), annealing (15 s at 55°C), and elongation (1 min at 72°C), and a final elongation step (5 min at 72°C). The primers used for tailing are the following: F-indexing primer […][i5][…] and R-indexing primer […][i7][…] GCTCGG, where [i5] and [i7] refer to the index sequence codes used by Illumina. The resulting 10 μl indexing PCR reactions were normalized using a SequalPrep normalization plate according to the manufacturer’s instructions (Life Technologies, USA). 20 μl of each normalized sample was pooled into a trough, and a SpeedVac was used to concentrate the sample pool down to 100 μl. The pool was then cleaned using 1X AMPureXP beads and eluted in 25 μl of nuclease-free water. The final pool was quantitated by QUBIT (Life Technologies, USA) and checked on a Bioanalyzer High-Sensitivity DNA Chip (Agilent Technologies, USA) to ensure correct amplicon size. The final pool was then normalized to 2 nM, denatured with NaOH, diluted to 8 pM in Illumina’s HT1 buffer, spiked with 20% PhiX, and heat denatured at 96°C for 2 minutes immediately prior to loading. A MiSeq 600 cycle v3 kit was used to sequence the pool. Raw sequences can be found in the SRA database (project ID: PRJNA877868).
Subsequent bioinformatics analyses were performed in-house as previously described. Initial quality filtering of the reads was performed with the Illumina Software, yielding an average of 51 929 pass-filter reads per sample. […]

The conditions of data set [4]: cited from earlier work.
Another data set has as its system CYP3A. Set-up: method as in PMID 11172691. To be noted: in vitro; cited from earlier work.
The test system of data set [5] is ABCB1. Further details: method as in PMID 11172691. To be noted: cited from earlier work.
Setting [6] is: mice, oral gavage, steady-state, mono-compartmental population PK model, mean.
The mark [7] stands for this setting: 5 days TAC oral vs vehicle-treated mice.

SMILES strings stand for the structures.

T1 sequence (P08183 whole entry): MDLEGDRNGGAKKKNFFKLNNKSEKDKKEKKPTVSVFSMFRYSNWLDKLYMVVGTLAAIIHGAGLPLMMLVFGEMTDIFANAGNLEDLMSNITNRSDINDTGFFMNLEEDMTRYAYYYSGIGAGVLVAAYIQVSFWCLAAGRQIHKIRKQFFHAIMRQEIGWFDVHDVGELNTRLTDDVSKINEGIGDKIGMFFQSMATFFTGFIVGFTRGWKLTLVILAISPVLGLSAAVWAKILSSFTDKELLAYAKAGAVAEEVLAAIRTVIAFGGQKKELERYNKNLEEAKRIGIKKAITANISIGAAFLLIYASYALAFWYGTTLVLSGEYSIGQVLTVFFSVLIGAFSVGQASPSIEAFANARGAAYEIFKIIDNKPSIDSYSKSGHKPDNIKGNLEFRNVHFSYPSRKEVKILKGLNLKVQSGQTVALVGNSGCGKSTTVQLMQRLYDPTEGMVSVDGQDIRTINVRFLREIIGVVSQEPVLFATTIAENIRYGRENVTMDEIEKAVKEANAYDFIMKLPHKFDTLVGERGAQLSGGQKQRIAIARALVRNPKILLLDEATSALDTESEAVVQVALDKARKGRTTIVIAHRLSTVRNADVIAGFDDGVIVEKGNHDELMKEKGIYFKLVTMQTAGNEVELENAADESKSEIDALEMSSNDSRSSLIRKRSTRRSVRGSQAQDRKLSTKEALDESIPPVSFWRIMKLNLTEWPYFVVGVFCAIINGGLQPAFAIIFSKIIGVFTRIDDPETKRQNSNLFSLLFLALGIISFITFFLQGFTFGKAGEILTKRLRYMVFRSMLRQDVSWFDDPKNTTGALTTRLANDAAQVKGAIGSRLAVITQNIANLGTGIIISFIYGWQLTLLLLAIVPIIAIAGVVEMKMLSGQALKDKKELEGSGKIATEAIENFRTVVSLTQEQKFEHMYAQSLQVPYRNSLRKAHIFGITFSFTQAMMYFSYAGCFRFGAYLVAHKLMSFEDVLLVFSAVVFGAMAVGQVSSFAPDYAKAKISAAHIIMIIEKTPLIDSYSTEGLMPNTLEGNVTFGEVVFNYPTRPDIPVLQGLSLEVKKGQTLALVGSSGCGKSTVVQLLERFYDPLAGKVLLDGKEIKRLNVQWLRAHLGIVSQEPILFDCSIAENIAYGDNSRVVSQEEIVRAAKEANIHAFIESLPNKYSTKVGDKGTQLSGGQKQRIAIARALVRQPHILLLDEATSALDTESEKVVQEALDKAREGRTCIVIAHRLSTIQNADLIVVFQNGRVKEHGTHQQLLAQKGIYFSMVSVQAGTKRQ

In the case of `COC(=O)c1ccccc1-c1c2ccc(=N)cc-2oc2cc(N)ccc12` [Rh123, rhodamine 123], the “intracellular accumulation in ABCB1 overexpressing cells vs control cells” value at ABCB1 [1] is “accumulated significantly less”.

As to `C=CC[C@@H]1/C=C(\C)C[C@H](C)C[C@H](OC)[C@H]2O[C@@](O)(C(=O)C(=O)N3CCCC[C@H]3C(=O)O[C@H](/C(C)=C/[C@@H]3CC[C@@H](O)[C@H](OC)C3)[C@H](C)[C@@H](O)CC1=O)[C@H](C)C[C@@H]2OC` [TAC, tacrolimus], in the data set with total bacteria, the “change in total bacterial load over time” value is “did not observe any significant change”. Besides, the “increase in TAC whole blood exposure” value in data set [2] (ATB-treated vs control mice, both under ZSQ supplementation) turned out to be 75%. For the same compound, in data set [2] (mice with lower intestinal microbial load due to antibiotics vs controls), the “reduction in TAC whole blood exposure” value was found to be 33%. The “time of absorption peak after the last administration” value in data set [2] (mice, 3 mg/kg oral, steady-state concentration-time curve) is 2 h. Moreover, in data set [2] (setting [6]), the “Ka (absorption rate constant)” value worked out at 1.20 h⁻¹ and the “V (volume of distribution)” value came out at 1.88 L. The “Cl/F (oral clearance)” value in data set [2] (mice, oral gavage, steady-state, mono-compartmental population PK model, mean, n = 351 blood samples in 99 mice) worked out at 0.32 L/h. Besides, the concentration at 2 h in data set [2] (mouse, whole blood, po, 3 mg/kg) is 39.1 ng/mL. Moreover, the AUC in data set [2] (mouse, whole blood, po, 3 mg/kg, ATB-treated mice (TAC + ATB), 3 mg/kg oral 5 days, steady-state) came to 131 ng·h/mL. This compound also registered an AUC in data set [2] (mouse, whole blood, po, 3 mg/kg, mice treated with TAC solely, 3 mg/kg oral 5 days, steady-state) of 195 ng·h/mL. For the same compound, in data set [2] (mouse, whole blood, po, TAC + ZSQ + ATB mice, ZSQ 30 mg/kg oral 15 min before last TAC administration), the AUC stood at 618 ng·h/mL. Besides, in data set [2] (mouse, whole blood, po, TAC + ZSQ mice, ZSQ 30 mg/kg oral 15 min before last TAC administration), the exposure (AUC) was 354 ng·h/mL. In addition, the “stability of the solution validated for” value in data set [3] worked out at 15 days. Besides, in the data set with gut microbiota (setting [7]), the “evenness of the gut microbiota (Simpson's and Heip's evenness indexes)” value was “significant reduction”; the “indexes combining richness and evenness (Shannon and Simpson indexes)” value was “significantly reduced”; the “richness (Chao1 and Observed ASV indexes)” value was “did not affect”. For the same compound, in the data set on gut microbiota (family level, 5 days TAC), the “relative abundance of Clostridiales incertae sedis XIII” value is “decrease”, the “relative abundance of Lachnospiraceae” value is on record as “decrease”, the “relative abundance of Rikenellaceae” value is “increase” and the “relative abundance of Ruminococcaceae” value is listed as “decrease”. In the data set on gut microbiota (family level, 5 days TAC), the “relative abundance of Verrucomicrobiaceae” value was “increase”. Also, in the data set on gut microbiota (genus level, 5 days TAC), the “relative abundance of Akkermansia” value is “increased”, the “relative abundance of Alistipes” value is given as “increased”, the “relative abundance of Oscillibacter” value is “decreased” and the “relative abundance of Ruminococcus 2” value is given as “decreased”. Also, in the data set with gut microbiota (genus level, after 5 days of treatment, PERMANOVA p < 0.05), the “variability in the microbiota dataset accounted for by TAC administration” value is recorded as 15%. For the same compound, the “parent drug recovered unchanged in the faeces or urine” value in data set [4] is “less than 0.5%”. The “time of absorption peak after drug intake” value in data set [4] (human population) was “around 2 h”. In addition, in data set [4] (human), the “time to steady-state (5 times the half-life)” value is recorded as ~ 60 h.

In the case of `O[C@@H](COc1cccc2ncccc12)CN1CCN([C@@H]2c3ccccc3[C@@H]3[C@H](c4ccccc42)C3(F)F)CC1` [ZSQ, Zosuquidar], the Ki is roughly 3.8 µM with CYP3A and roughly 59 nM in the data set with ABCB1 [5]. For the same compound, the “change in TAC AUC in comparison to TAC solely group” value in data set [2] (mouse, in vivo) is reported as “significant increase”. Moreover, in the data set on ABCB1 [5] (CYP3A vs ABCB1), the “affinity for CYP3A lower than for ABCB1” value is recorded as “more than 60 times”.

In the case of `C=CCC1C=C(C)CC(C)CC(OC)C2OC(O)(C(C)CC2OC)C(O)C(=O)N2CCCCC2C(=O)OC(C(C)=CC2CCC(O)C(OC)C2)C(C)C(O)CC1=O` (centres unmarked) [bacteria-derived TAC metabolite], the “bacteria-derived TAC metabolite as share of the parent drug” value in data set [4] (human, in vivo) is given as ≤ 5 % of the parent drug.

Broadly, the AUC is concentration integrated over time. As usually defined, the Ki is a dissociation constant, usually derived from enzyme kinetics or from competition with a known ligand.
